We go through two compounds from publication doi:10.1101/2020.10.25.354381v1, “Multi-dimensional digital bioassay platform based on an air-sealed femtoliter reactor array device” (biorxiv, 2020).

Experiment [1] has as its system T1, CiALP (calf intestinal ALP).
T1 construct: gene ALPI; homodimeric metalloenzyme
Nature of the experiment: fluorogenic ALP assay, bulk microtiter plate, Hill fit. It counts as biochemical, Bos taurus. The conditions noted are these: […] 4-MUP, […] DEA-HCl, […] MgCl2, […] ZnSO4, pH […] TWEEN20, […] °C; […] min preincubation.

Experiment [2] has as its target T2, EcALP (D101S, an active mutant of Escherichia coli ALP) (Escherichia coli, UniProt P00634, D123S).
T2 construct: gene phoA; D101S mutant, cell-free synthesis (PURExpress with disulfide bond enhancer), not purified; homodimeric metalloenzyme
The experiment is described as above. Type of experiment: biochemical. As to conditions: […] 4-MUP, […] DEA-HCl, […] MgCl2, […] ZnSO4, pH […] TWEEN20, […] °C; […] min preincubation; diluted cell-free synthesis mixture.

T2 sequence (P00634 22-471 D123S): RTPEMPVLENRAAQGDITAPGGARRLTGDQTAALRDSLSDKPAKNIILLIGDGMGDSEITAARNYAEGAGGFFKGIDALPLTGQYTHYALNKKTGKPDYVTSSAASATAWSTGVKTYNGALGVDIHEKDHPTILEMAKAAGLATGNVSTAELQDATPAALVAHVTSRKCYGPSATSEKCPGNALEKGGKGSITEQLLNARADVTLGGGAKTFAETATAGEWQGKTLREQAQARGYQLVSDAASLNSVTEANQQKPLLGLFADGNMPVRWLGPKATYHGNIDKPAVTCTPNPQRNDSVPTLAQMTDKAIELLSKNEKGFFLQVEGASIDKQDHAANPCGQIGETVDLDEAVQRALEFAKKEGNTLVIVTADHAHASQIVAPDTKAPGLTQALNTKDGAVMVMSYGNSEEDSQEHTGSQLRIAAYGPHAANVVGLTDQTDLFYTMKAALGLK

With `[O]=[V]([OH])([OH])[OH]` [V, vanadate], the results for the concentration for half-maximal inhibition (IC50) in experiment [1] and in experiment [2] were 200 µM and 7800 µM, respectively.
Compound `O=P(O)(O)O` [Pi, phosphate] returned an IC50 in experiment [1] of 1600 µM.
